Laboratory results: PMC12797170, “Potent Competitive Inhibitors of Ecto-5′-nucleotidase (CD73) based on 6‑(Het)aryl-7-deazapurine Ribonucleoside 5′‑O‑Bisphosphonates” (ACS Pharmacology & Translational Science, 2025)
In brackets after ≈: the same amount, converted by molar mass. Read-outs that look alike come from different tables or passages of the source.

Legend:
[1] = Plasma protein binding, equilibrium dialysis, human plasma; type: in vitro ADME; conditions: undiluted plasma
[2] = Plasma protein binding, mouse plasma; type: in vitro ADME
[3] = Kinetic solubility in PBS; type: physicochemical; conditions: phosphate-buffered saline, pH 7.4, aqueous buffer, kinetic from dmso stock
How it was run: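 Echo-MS quantitation with calibration from 0.05 to 4 μM, after 1:99 dilution of filtrate into 50% acetonitrile. Filtrate came from a 100 μM PBS (pH 7.4) solution equilibrated 2 h at room temperature with shaking, in duplicate.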

[4] = Microsomal stability assay, human liver microsomes; type: in vitro ADME; conditions: for Mics (hu) comp remaining 60 min: 10 μM; for microsomal CLint at 10 µM: pooled liver microsomes, pH 7.4, read-out: Mics (hu) CLint
[5] = Microsomal stability assay, mouse liver microsomes; type: in vitro ADME; conditions: for Mics (m) comp remaining 60 min: 10 μM; for microsomal CLint at 10 µM: pooled liver microsomes, pH 7.4, read-out: Mics (m) CLint
[6] = tested on: CD8+ T cells; experiment: CD8+ T cell activation assay (CD25, IFN-γ, granzyme B); type: cell-based, human; conditions: 500 nM, separate CD8+ T-cell activation assays
Description: 6 CD73 inhibition partially reverses the immunosuppressive effect of adenosine generated from AMP in CD8 ^ + T cells. CD8^+ T cells were activated using CD3/CD28 activation beads in the presence of 2.5 μM EHNA, with or without 1 mM AMP and CD73 inhibitors (500 nM or 50 nM). A. CD25 expression. The percentage of CD8^+ T cells expressing the activation marker CD25 was measured by flow cytometry 60 h after activation. Data represent technical triplicates. B. Cytokine secretion. Granzyme B and IFN-γ levels in the culture supernatant were quantified by ELISA 60 h after activation. The data represent technical duplicates from two independently treated wells.
Peripheral blood was obtained from healthy donors at the Military University Hospital Prague, following informed consent. CD8+ T cells were enriched using the RosetteSep Human CD8+ T Cell Enrichment Cocktail ([…] Technologies) according to the manufacturer’s instructions and subsequently isolated by density gradient centrifugation using SepMate tubes ([…] Technologies). Residual red blood cells were lysed using a red blood cell lysis buffer (155 mM NH4Cl, 12 mM NaHCO3, 0.1 mM EDTA, pH = 7.1–7.4). The isolated CD8+ T cells were resuspended in complete RPMI and counted using an automated cell counter.
CD8+ T cells were seeded at 5 × 10^4 cells/well in 50 μL of complete RPMI in a flat-bottom 96-well plate. […] This was followed by the addition of 10 μL of a CD73 inhibitor at either 5 μM or 500 nM (experimental wells) or 10 μL of complete RPMI (control wells). Subsequently, 20 μL of 5 mM AMP was added to all wells except those serving as controls for maximal T cell activation. […]
Following incubation, supernatants were collected for quantification of IFN-γ and granzyme B using ELISA. […] Finally, stained cells were washed and analyzed using a BD LSRFortessa flow cytometer. Data were processed and analyzed using FlowJo software (version 10.8.1) and GraphPad Prism 10.
Secretion of IFN-γ and granzyme B was quantified using Human IFN-γ DuoSet ELISA and Human Granzyme B DuoSet ELISA (R&D Systems) according to the manufacturer’s instructions. […]

[7] = AB680 literature row of Table 4; cited from earlier work
[8] = in vitro; conditions: human, plasma
[9] = in vitro; conditions: mouse, plasma
[10] = molecular target: T1, recombinant human CD73 (hCD73) (Homo sapiens, UniProt P21589); experiment: CD73 activity assay on recombinant human CD73; type: biochemical; conditions: ΔGexp = RT ln Ki
T1 sequence (P21589 27-574): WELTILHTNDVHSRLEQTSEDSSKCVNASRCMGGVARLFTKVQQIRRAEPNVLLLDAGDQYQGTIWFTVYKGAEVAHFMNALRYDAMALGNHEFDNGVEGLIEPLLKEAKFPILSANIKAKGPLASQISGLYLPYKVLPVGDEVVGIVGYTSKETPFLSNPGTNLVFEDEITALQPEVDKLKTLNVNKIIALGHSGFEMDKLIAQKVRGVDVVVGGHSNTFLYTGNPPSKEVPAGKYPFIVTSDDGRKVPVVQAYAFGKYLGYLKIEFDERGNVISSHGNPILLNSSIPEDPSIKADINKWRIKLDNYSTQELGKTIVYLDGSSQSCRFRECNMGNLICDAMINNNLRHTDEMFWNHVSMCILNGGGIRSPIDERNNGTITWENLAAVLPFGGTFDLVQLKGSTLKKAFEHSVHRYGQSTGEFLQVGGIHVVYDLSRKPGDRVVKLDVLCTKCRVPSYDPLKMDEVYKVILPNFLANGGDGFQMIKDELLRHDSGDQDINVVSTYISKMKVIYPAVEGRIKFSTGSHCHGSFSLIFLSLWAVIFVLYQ

[11] = In vivo pharmacokinetic study, intravenous; design: species or system male CD-1 mice; conditions: for half-life: male, footnote: t1/2 stability in plasma, text: half-life in mouse PK
How it was run: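 Single intravenous dose in male CD-1 mice (n=3, 9 weeks, 29.2–33.7 g). Plasma levels measured by LC-MS/MS at 5, 15, 30, 60, 120, 240 and 480 min.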

[12] = tested on: CCRF-CEM; experiment: In vitro cytotoxic activity; type: cell-based; conditions: Homo sapiens
Description: (§1) All the compounds were also tested for their in vitro cytotoxic activity on a small panel of four cancer cell lines (CCRF-CEM, HepG2, HeLa S3, HL-60) and nonmalignant human dermal fibroblasts (NHDF).

[13] = tested on: HL-60; experiment: In vitro cytotoxic activity; type: cell-based; conditions: Homo sapiens
Description: as §1

[14] = tested on: HeLa S3; experiment: In vitro cytotoxic activity; type: cell-based; conditions: Homo sapiens
Description: as §1

[15] = tested on: HepG2; experiment: In vitro cytotoxic activity; type: cell-based; conditions: Homo sapiens
Description: as §1

[16] = tested on: nonmalignant human dermal fibroblasts (NHDF); experiment: In vitro cytotoxic activity; type: cell-based
Description: as §1

[17] = Plasma stability assay, human plasma
[18] = Plasma stability assay, mouse plasma
[19] = tested on: MDA-MB-231 breast cancer cell line; experiment: CellTox Green cytotoxicity assay; type: cell-based, human; conditions: 24 h
Description: MDA-MB-231 cells were harvested and counted using an automated cell counter. A total of 2,500 cells per well were seeded in 20 μL of phenol red-free complete RPMI medium into black 384-well plates. Five μL of CD73 inhibitors (final concentration: […]) or 5 μL PBS (negative control) were added to each well, except for wells designed as maximal signal (dead cell) controls. Plates were incubated for 24 h at 37 °C in a humidified CO2 incubator. To generate the maximum signal control, 5 μL of lysis buffer (CellTox Green Cytotoxicity Assay, Promega) was added to the dead cell controls, followed by a 30 min incubation at room temperature. Subsequently, 25 μL/well of CellTox Green Dye (diluted 1:500 in the assay buffer; Promega) was added. Plates were incubated in the dark on an orbital shaker at 500–700 rpm for 15 min. Fluorescence was measured using an Infinite M1000 plate reader (Tecan) with excitation at 485–500 nm and emission at 520–530 nm. Data were analyzed in GraphPad Prism 10.
Figure S2: Effect of CD73 inhibition on the viability of CD73-expressing breast cancer cell line. MDA-MB-231 cells were incubated with 10 µM CD73 inhibitors for 24 hours. Viability was assessed using the CellTox™ Green Cytotoxicity Assay.
± s.d. of technical triplicates (s.d., standard deviation).
(1 picture or pasted object on this page, not shown here)

[20] = human plasma protein binding, read-out: PPB (hu) (converted)
[21] = mouse, plasma, Tables 2 and 4, mouse plasma, read-out: fup, fraction unbound in mouse plasma
[22] = mouse, plasma, mouse plasma protein binding, read-out: PPB (m) (converted)
[23] = mouse, plasma, 1 mg/kg, male CD-1 mice, intravenous, single dose, read-out: Cl (obs), observed clearance

| fraction unbound at 4 h, 100 µM [1, 20] | fraction unbound at 4 h, 100 µM [2, 21] | fraction unbound at 4 h, 100 µM [2, 22] | solubility at 2 h [3] [µM] | Mics (hu) comp remaining 60 min [4] [%] | microsomal CLint at 10 µM [4] [µL/min/mg] | Mics (m) comp remaining 60 min [5] [%] | microsomal CLint at 10 µM [5] [µL/min/mg] | half-life at 10 µM [8] [h] | half-life at 10 µM [9] [h] | Structure (SMILES) | dG_exp, experimental binding free energy [10] | clearance [11, 23] [mL/min/kg] | IC50 [12] [µM] | IC50 [13] [µM] | IC50 [14] [µM] | IC50 [15] [µM] | IC50 [16] [µM] | also measured |
| --- | --- | --- | --- | --- | --- | --- | --- | --- | --- | --- | --- | --- | --- | --- | --- | --- | --- | --- |
| ≤ 0.01 | 0.1 | 0.098 | 76 (≈ 44.1 µg/mL) | 118 | < 2 | 117 | < 2 | > 2 | > 2 | C[C@H](Nc1cc(Cl)nc2c1cnn2[C@@H]1O[C@H](COP(=O)(O)CP(=O)(O)O)[C@@H](O)[C@H]1O)c1ccccc1F [AB680, quemliclustat, reference compound] | – | – | – | – | – | – | – | median increase in CD25 expression [6]: 41%; fup, fraction unbound in mouse plasma [7]: 0.89 |
| 0.034 | 0.27 | 0.274 | 92 (≈ 52.4 µg/mL) | 96 | 1 | 94 | 2 | > 2 | > 2 | O=P(O)(O)CP(=O)(O)OC[C@H]1O[C@@H](n2ccc3c(-c4cccc5ccccc45)nc(Cl)nc32)[C@H](O)[C@@H]1O [7B.6] | –15.4 kcal/mol | 0.73 | > 10 | 2.9 | > 10 | > 10 | > 10 | half-life ([11]; CD-1, mouse, plasma, iv, 1 mg/kg, intravenous): 2.1 h; in vitro cytotoxicity against MDA-MB-231 [19]: nontoxic |

| Structure (SMILES) | fraction unbound at 4 h, 100 µM [1, 20] | fraction unbound at 4 h, 100 µM [2, 21] | fraction unbound at 4 h, 100 µM [2, 22] | solubility at 2 h [3] [µM] | Mics (hu) comp remaining 60 min [4] [%] | microsomal CLint at 10 µM [4] [µL/min/mg] | Mics (m) comp remaining 60 min [5] [%] | microsomal CLint at 10 µM [5] [µL/min/mg] | half-life at 10 µM [8] [h] | half-life at 10 µM [9] [h] | dG_exp, experimental binding free energy [10] | clearance [11, 23] [mL/min/kg] | IC50 [12] [µM] | IC50 [13] [µM] | IC50 [14] [µM] | IC50 [15] [µM] | IC50 [16] [µM] | also measured |
| --- | --- | --- | --- | --- | --- | --- | --- | --- | --- | --- | --- | --- | --- | --- | --- | --- | --- | --- |
| O=P(O)(O)CP(=O)(O)OC[C@H]1O[C@@H](n2ccc3c(-c4cc5ccccc5c5ccccc45)ncnc32)[C@H](O)[C@@H]1O [4A.11] | 0.013 | – | – | 68 (≈ 39.8 µg/mL) | – | – | – | – | – | – | –13.1 kcal/mol | 2 | > 10 | > 10 | > 10 | > 10 | > 10 | clearance ([11]; in vivo PK in mice, unit not given): moderate clearance; half-life ([11]; CD-1, 1 mg/kg, intravenous): 1.65 h; fraction unbound at 4 h, 100 µM ([1]; Tables 1 and 3, human plasma as printed in footnote, read-out: fup, fraction unbound in human plasma): 0.31; fraction unbound at 4 h, 100 µM ([2]; mouse plasma protein binding, read-out: PPB (m) (converted)): 0.222; half-life at 10 µM [17]: > 2 h; half-life at 10 µM [18]: > 2 h |
